The record followed here is BindingDB's records for doi:10.1021/np000120k (The University of Tokyo, 2000).

For the experiment, the target named is T1, Carboxypeptidase A1 (Homo sapiens, UniProt P15085).
T1 sequence (P15085 whole entry): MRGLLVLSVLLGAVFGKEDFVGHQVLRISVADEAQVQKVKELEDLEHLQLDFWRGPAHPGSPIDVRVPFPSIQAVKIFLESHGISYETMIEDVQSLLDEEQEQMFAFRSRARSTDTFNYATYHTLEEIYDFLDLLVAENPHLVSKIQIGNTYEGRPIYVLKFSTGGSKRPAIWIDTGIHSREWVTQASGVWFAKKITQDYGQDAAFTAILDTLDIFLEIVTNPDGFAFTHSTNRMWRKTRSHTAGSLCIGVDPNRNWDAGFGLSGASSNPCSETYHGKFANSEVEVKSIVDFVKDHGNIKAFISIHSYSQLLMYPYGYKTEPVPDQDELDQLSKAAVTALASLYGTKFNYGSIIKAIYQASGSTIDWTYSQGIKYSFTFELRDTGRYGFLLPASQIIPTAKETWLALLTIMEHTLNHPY
The experiment in a line: Inhibition of carboxypeptidase A.

Structures are written as SMILES. In brackets after ≈: the same amount, converted by molar mass. Starred links: 1 amine or outer side, 2 acyl side, 3 side chain; linkers in the order of their positions; H or OH if unused. Positions of bridges follow the written chain, without caps; N, C: chain ends. Non-standard residues stand in square brackets, D forms with d. Residues, ends and D or L forms follow the SMILES beside them. NMehTyr = CN[C@@H](CCc1ccc(O)cc1)C(=O)O; hTyr = N[C@@H](CCc1ccc(O)cc1)C(=O)O; CO = O=C([*:1])[*:2]

For the compound `CC[C@H](C)[C@@H]1NC(=O)[C@H](NC(=O)N[C@@H](Cc2ccc(O)cc2)C(=O)O)CCCCNC(=O)[C@H]([C@@H](C)CC)NC(=O)[C@H](CCc2ccc(O)cc2)N(C)C(=O)[C@H](CCc2ccc(O)cc2)NC1=O` [Anabaenopeptin G] ({Tyr-CO}-[dK]I[hTyr][NMehTyr]I; lactam 1-C), the IC50 stood at 7 ng/mL (≈ 7.53 nM).

What is called IC50 is the concentration that inhibits the measured activity by half.
